Experimental data as given in patent publication US11963985B2, “Coral composite extract, composition including the same and method of producing the same” (National Sun Yat-Sen University, priority 2018, dated 2024).

Assay: partition coefficient (log P) of EXC-B
Type: physicochemical
Experimental: Next, as STEP 103 depicts, the crude extraction step is performed on the coral staring material to obtain a crude extract, in which a first solvent is applied. In one embodiment, there is no limitation of the kind of the first solvent. However, the one having a polarity index P′ value closer to a polarity index P′ value of the coral composite extract is the better. For example, a partition coefficient (log P) of EXC-B is about 0.9 and an octanol-water partition coefficient (Clog P) of EXC-B is about 3.5568. Therefore, the polarity index P′ value of the first solvent can be 0.1 to 6.0, but 1.0 to 5.4 is better.

## excavatolide B [EXC-B]
  partition coefficient (log P): about 0.9
